# Assay results taken from patent publication US8680059B2, “Oligopeptide acetate and formulations thereof” (Biotempt B.V., priority 1998, dated 2014).
# “And” between values parts separate entries of the source, which are not always exact repeats. Identical values can stand only once. Peptide text beside a SMILES is read from it.
# Tests used:
# [1] = Phase I human trial: plasma pharmacokinetics of EA-230; type: in vivo; details: for tmax: 15-min infusion; for AUC(0-t) / Cmax: plasma, iv
# Description: (§1) Part 1: A Phase I, double blind, randomized, single dose, placebo controlled, dose escalation study with 4 groups of 8 subjects (Groups 1-4). In each group 6 subjects were randomized to active medication and 2 to placebo. The first group received a single intravenous injection of EA-230 or placebo. After all subjects had completed Day 7 assessments, the safety review board decided on continuation of the study until the maximum tolerated dose had been assessed or the highest dose. Placebo subjects were pooled for analysis.
# (§2) Part 2: A Phase I, double blind, randomized, single dose, placebo controlled study. The second part consisted of 1 group of 12 subjects (Group 5). All twelve subjects received LPS (4 ng/kg E. coli EC6) as a 2-minute injection, 30 minutes prior to EA-230 administration. […] Cytokines profiles were assessed to establish the effect of EA-230 on inflammatory parameters.
# Plasma concentration time profiles of EA-230 were analyzed. Pharmacokinetic parameters AUC, clearance, volume of distribution and elimination half-life were obtained for EA-230.
# PK samples were collected pre-dose and from 5 minutes to 4 hours after the start of study drug administration.
# healthy male subjects = test: Phase I human trial: safety; type: in vivo
# Description: as §1, §2
# Adverse events (AEs), vital signs, ECG, hematology, clinical chemistry, and urinalysis.
# Incidence of treatment emergent AEs and treatment emergent treatment related AEs were summarized. Hematological, biochemical, urinalysis parameters, vital signs and their changes from baseline were summarized over time using n, mean, standard deviation, median and range.
# [2] = system: BALB/c mice injected i.p. with LPS (E. coli 026:B6); test: LPS-induced septic shock (endotoxin model) in BALB/c mice; type: in vivo, mouse; set-up: key to Sickness score of individual mouse: 0: No abnormalities.; 1: Percolated fur, but no detectable behavior differences compared to normal mice.; 2: Percolated fur, huddle reflex, responds to stimuli (such as tap on cage), just as active during handling as healthy mouse.; 3: Slower response to tap on cage, passive or docile when handled, but still curious when alone in a new setting.; 4: Lack of curiosity, little or no response to stimuli, quite immobile.; 5: Labored breathing, inability or slow to self-right after being rolled onto back (moribund, sacrificed).; Dead; details: for Survival %: group of 6, 48 hrs
# Protocol: Mice used in sepsis or septic shock experiments: Female BALB/c mice of 8-12 weeks of age were used for all experiments. The animals were bred in our facility under specific pathogen-free conditions according to the protocols described in the Report of European Laboratory Animal Science Associations (FELASA) Working group on Animal Health (Laboratory Animals 28: 1-24, 1994).
# Injection protocols: For the endotoxin model, BALB/c mice were injected i.p. with 150-300 μg LPS (E. coli 026:B6; Difco Lab., Detroit, Mich., USA). Control groups were treated with PBS i.p. only. To test the effect of peptides, they were dissolved in PBS and injected i.p. at predetermined points in time after LPS treatment.
# Mice were scored for sickness severity using the following measurement scheme: • 0 No abnormalities. • 1 Percolated fur, but no detectable behavior differences compared to normal mice. • 2 Percolated fur, huddle reflex, responds to stimuli (such as tap on cage), just as active during handling as healthy mouse. • 3 Slower response to tap on cage, passive or docile when handled, but still curious when alone in a new setting. • 4 Lack of curiosity, little or no response to stimuli, quite immobile. • 5 Labored breathing, inability or slow to self-right after being rolled onto back (moribund, sacrificed). • D Dead […]
# A comparative trial was set up to compare peptide MTR and SEQ ID NO:2. The comparative trial comprised 6 groups of 6 animals; two groups (1A and 1B) receiving placebo (PBS), one group (2) peptide MTR (source Pepscan, Lelystad, NL), one group (3) receiving peptide MTR (source Ansynth), one group (4) receiving peptide SEQ ID NO:2 (source Pepscan) and one group peptide SEQ ID NO:2 (source Ansynth). Peptide/placebo in these groups was administered 2 hours after LPS. LPS (source) was used at 10-11 mg/kg. Sickness scores were done at 0, 2, 22 26 42 and 48 hours after LPS injection.
# [3] = system: mice, 25 minutes renal ischemia/reperfusion; test: Mouse renal ischemia reperfusion test (mortality, BUN/serum urea); type: in vivo; set-up: BUN, mean / Urea level: unit not given here
# Protocol: SEQ ID NO:2 was tested and compared with PBS (control) in a double blind animal study for the peptide's relative ability to aid recovery in a mouse renal ischemia reperfusion test. In this test, the mice were anesthetized, and one kidney from each mouse was removed. The other kidney was tied off for 25 minutes, and the serum urea levels were allowed to increase. Both before and after tying off, the peptide was administered to thirty (30) different mice (5 mg oligopeptide/kg body mass intravenously), after which, the mortality of the mice was determined for each oligopeptide as well as was the BUN concentration at two hours, 24 hours and 72 hours.
# Under inhalation anesthesia, the left kidney with its artery and vein was isolated and occluded for 25 minutes using a microvascular clamp. During surgery animals were placed on a heating path to maintain body temperature at 37° C. Five minutes before placing the clamp, and 5 minutes before releasing the clamp, 5 mg/kg of peptide, dissolved in 0.1 mL of sterile saline, was administered intravenously. After reperfusion of the left kidney the right kidney was removed. Kidney function was assessed by measuring blood urea nitrogen before clamping, and at 2, 24, and 72 hours after reperfusion.
# To determine dose-response relationships SEQ ID NO:2, was tested in a dose-response manner in the mice test as described above. Peptides were tested at 0.3, 1, 3, 10 and 30 mg/kg dosages given as described in Example I. Serum urea levels are presented in Table 3.
# [4] = 1 mg/kg, 1 mg/kg i.v. 2-min infusion, N = 6, arithmetic mean ± SD
# [5] = 3 mg/kg, 3 mg/kg i.v. 2-min infusion, N = 6, arithmetic mean ± SD
# [6] = 10 mg/kg, 10 mg/kg i.v. 15-min infusion, N = 6, arithmetic mean ± SD
# [7] = 10 mg/kg, Part 2, LPS + 10 mg/kg i.v. 15-min infusion, arithmetic mean ± SD
# [8] = 30 mg/kg, 30 mg/kg i.v. 15-min infusion, N = 6, arithmetic mean ± SD
compound,measurement,setting,value
"CC(C)[C@H](NC(=O)CNC(=O)[C@H](CCC(N)=O)NC(=O)[C@H](C)N)C(=O)O [EA-230, H-Ala-Gln-Gly-Val-OH.xAcOH] (H-AQGV-OH)",tmax,[1]; 10 mg/kg EA-230 alone,5 minutes before the end of infusion
same,time by which average plasma concentrations were below LOQ,[1]; 1-mg/kg dose,≤ 15 min
same,time by which average plasma concentrations were below LOQ,"[1]; 30-mg/kg dose, after dosing",≤ 120 min
same,tmax,"[1]; most subjects, 10 mg/kg EA-230 with LPS challenge",10 minutes before the end of infusion
same,AUC(0-t),[1]; [4],0.0025 µg·h/mL
same,Cmax,[1]; [4],0.0325 µg/mL
same,AUC(0-t),[1]; [5],0.0118 µg·h/mL
same,Cmax,[1]; [5],0.132 ± 0.0764 µg/mL
same,AUC(0-t),[1]; [6],0.217 µg·h/mL
same,Cmax,[1]; [6],1.6 ± 1.13 µg/mL
same,AUC(0-t),[1]; [7],0.303 µg·h/mL
same,Cmax,[1]; [7],1.71 ± 1.33 µg/mL
same,AUC(0-t),[1]; [8],0.595 µg·h/mL
same,Cmax,[1]; [8],3.22 ± 1.08 µg/mL
same,elimination from plasma,[1]; single i.v. dose 1-30 mg/kg,rapidly eliminated
same,"AE occurrence, placebo vs active subjects",healthy male subjects,No difference in AE occurrence
same,safety and tolerability of a single dose,healthy male subjects; 1 mg/kg to 30 mg/kg i.v.,safe and well tolerated
same,number or intensity of AEs with the dose,healthy male subjects; escalating dose part 1-30 mg/kg,No increase in the number or intensity of AEs
same,QTc,healthy male subjects; whole study,No abnormal QTc
same,serious adverse events (SAE),healthy male subjects; whole study,No SAE occurred
MTR,Sickness score of individual mouse,"[2]; source Ansynth (#Ansynth 12/46) 2 hours after LPS 10-11 mg/kg, 0 hrs (before peptide)",0
same,Sickness score of individual mouse,"[2]; source Ansynth (#Ansynth 12/46) 2 hours after LPS 10-11 mg/kg, 2 hrs (at peptide administration)",2
same,Sickness score of individual mouse,"[2]; source Ansynth (#Ansynth 12/46) 2 hours after LPS 10-11 mg/kg, 22 hrs",2 (4×) and 4 and 3
same,Sickness score of individual mouse,"[2]; source Ansynth (#Ansynth 12/46) 2 hours after LPS 10-11 mg/kg, 26 hrs",1 and 2 (2×) and 5 and 4 and 3
same,Sickness score of individual mouse,"[2]; source Ansynth (#Ansynth 12/46) 2 hours after LPS 10-11 mg/kg, 42 hrs",1 and 2 (2×) and dead and 4 and 5
same,Sickness score of individual mouse,"[2]; source Ansynth (#Ansynth 12/46) 2 hours after LPS 10-11 mg/kg, 48 hrs",1 (2×) and dead (2×) and 2
same,Survival %,[2]; source Ansynth (#Ansynth 12/46) 2 hours after LPS 10-11 mg/kg,50%
same,Sickness score of individual mouse,"[2]; source Pepscan (#970/#971) 5 mg/kg 2 hours after LPS 10-11 mg/kg, 0 hrs (before peptide)",0
same,Sickness score of individual mouse,"[2]; source Pepscan (#970/#971) 5 mg/kg 2 hours after LPS 10-11 mg/kg, 2 hrs (at peptide administration)",2
same,Sickness score of individual mouse,"[2]; source Pepscan (#970/#971) 5 mg/kg 2 hours after LPS 10-11 mg/kg, 22 hrs",dead and 3 and 2 (3×) and 4
same,Sickness score of individual mouse,"[2]; source Pepscan (#970/#971) 5 mg/kg 2 hours after LPS 10-11 mg/kg, 26 hrs",3 and 2 (3×) and 5
same,Sickness score of individual mouse,"[2]; source Pepscan (#970/#971) 5 mg/kg 2 hours after LPS 10-11 mg/kg, 42 hrs",5 and 2 (2×) and 4 and dead
same,Sickness score of individual mouse,"[2]; source Pepscan (#970/#971) 5 mg/kg 2 hours after LPS 10-11 mg/kg, 48 hrs",dead (2×) and 2 (2×)
same,Survival %,[2]; source Pepscan (#970/#971) 5 mg/kg 2 hours after LPS 10-11 mg/kg,33%
AQG,Urea level,"[3]; 0.3 mg/kg, 24 h",38.4
same,Urea level,"[3]; 0.3 mg/kg, 72 h",30.4
same,Urea level,"[3]; 1.0 mg/kg, 24 h",48.4
same,Urea level,"[3]; 1.0 mg/kg, 72 h",38.4
same,Urea level,"[3]; 3.0 mg/kg, 24 h",39.3
same,Urea level,"[3]; 3.0 mg/kg, 72 h",40.3
same,Urea level,"[3]; 10.0 mg/kg, 24 h",46.8
same,Urea level,"[3]; 10.0 mg/kg, 72 h",25.8
same,Urea level,"[3]; 30.0 mg/kg, 24 h",52.8
same,Urea level,"[3]; 30.0 mg/kg, 72 h",58.9
